One compound from PMC4977651, “Molecular features of biguanides required for targeting of mitochondrial respiratory complex I and activation of AMP-kinase” (BMC Biology, 2016) can be followed below.

The structures appear in SMILES notation. Where “and” joins values, the source holds several entries; their conditions need not be identical. Identical values can stand only once.

The subject of the experiment is 143B cells. Nature of the experiment: Membrane potential measurement by TMRM fluorescence. Format: cell-based, human. On the procedure:
143B cells were seeded at 5 × 10^5 cells per 10 cm^2 well in DMEM containing 10 % FBS. […] The detached cells from each well were incubated in PBS containing 25 pg/mL tetramethylrhodamine, methyl ester (TMRM) and 20 μg/mL Hoescht stain for 20 min at 37 °C then washed twice and re-suspended in 200 μL PBS. TMRM fluorescence was detected using a NucleoCounter® NC 3000 cytometer with excitation at 530 nm and emission at 575 nm, with the Hoescht stain used to check for consistent cell density between samples.

`[H]/N=C(/N)N/C(=N/[H])NCCc1ccccc1` [phenformin, reference compound]: for the setting “after 6.5 h, phenformin at IC50/10 (34 μM), FCCP at 1 μM, n = 3”, the “TMRM fluorescence, % of the control value” turned out to be 22.4 ± 2.9%. In addition, the “mean-y (TMRM)” value (individual replicates, phenformin 6.5 hours) was 3427.6 and 3669.9 and 3614.5. Moreover, where the note is “n 3, phenformin 6.5 hours”, the TMRM average is recorded as 3570.67 and the “TMRM average, % control” value stood at 22.44 % control.
